Data as given in a melting point compilation (Tetko et al.).

melting point	Structure (SMILES)
165 to 169 °C	O=C(O)/C=C/c1ccc2c(c1)OCCO2
82 to 84 °C	CCOC(OCC)c1cc(-c2cccc(F)c2)[nH]n1
193 to 195 °C	CCCn1c(N)c(NCCOC)c(=O)[nH]c1=O
217 to 219 °C	CC(C)(C)NC(=O)c1ccc(C(=O)O)cc1
226 to 228 °C	O=C(O)c1csc(S(=O)(=O)N2CCOCC2)c1
159 to 161 °C	O=C(O)c1csc2c1CCCC2
151 to 153 °C	COCCn1c(N)c(NCc2ccccc2)c(=O)[nH]c1=O
231 to 233 °C	COc1ccc(-n2c(C)c(C)c3c(N)ncnc32)cc1
80 to 82 °C	O=C(O)CSc1ccccc1F
204 to 206 °C	O=C(O)C=Cc1ccc(-n2cc(Br)cn2)c(F)c1
152 to 154 °C	O=C(O)CCc1nc(-c2ccc(Cl)cc2)no1
109 to 111 °C	Nc1cccc2c1CN(CCO)C2
180 to 183 °C	O=C(CC1SC(N2CCCC2)=NC1=O)Nc1ccc(C(=O)O)cc1 (stereo not given)
153 to 155 °C	C#CCN1C(=O)C(=O)c2ccccc21
117 to 119 °C	O=c1ccc2cc(S(=O)(=O)Cl)ccc2o1
239 to 241 °C	O=C(O)c1cccc(-c2nnco2)c1
146 to 148 °C	CCc1ccc(C(=O)O)cc1N
62 to 66 °C	CC(C)(C)OC(=O)N1CCCCC1C#N (stereo not given)
167 to 169 °C	COc1cc(-c2ccccc2)sc1C(=O)O
116 to 118 °C	Nn1c(S)nnc1C1CCOC1 (stereo not given)
118 to 120 °C	CC(C)(C)OC(=O)NC1CCCN(Cc2ccccc2)C1 (stereo not given)
224 to 226 °C	COc1cc2nc(N)sc2cc1OC
89 to 91 °C	COc1ccc(CNS(C)(=O)=O)cc1
223 to 226 °C	CCN(CC)S(=O)(=O)c1ccc(OC(C)C)c(NC(=O)CCl)c1
69 to 73 °C	COc1ccc(C(=O)c2ccc(OC)cc2OC)cc1
78 to 80 °C	CCCc1c(C(=O)O)nnn1-c1cccc(C(C)C)c1
159 to 161 °C	CN(C)C=Nc1[nH]ncc1C#N
59 to 61 °C	CC1(CO)CCN(Cc2ccccc2)CC1

melting point	Structure (SMILES)
75 to 77 °C	ClCc1csc(COc2ccc(Cl)cc2)n1
115 to 117 °C	Nc1ccc(S(=O)(=O)N=C2CCCCCN2)cc1
200 to 202 °C	Cc1ccccc1-c1nnc(Cl)n1-c1ccccc1C
78 to 80 °C	Cc1cc(OS(C)(=O)=O)nc2c1cnn2C(C)C
199 to 201 °C	Cn1cc([N+](=O)[O-])cc1C(=O)O
120 to 122 °C	Nc1cccc(OCC(=O)Nc2ccccc2)c1
89 to 91 °C	Fc1cc2ncnc(Cl)c2cc1F
52 to 54 °C	CS(=O)(=O)N1CCCC1C(=O)O (stereo not given)
211 to 213 °C	CC(C)(C)S(=O)(=O)Cc1ccc(N)cc1
95 to 97 °C	COc1ccc(NC#N)cc1Cl
133 to 135 °C	FC(F)(F)c1cccc(-c2ccc(Cl)nn2)c1
210 to 214 °C	Cc1ncc([N+](=O)[O-])cc1C(=O)O
156 to 158 °C	CN(C)Cc1ccc(C(N)=O)cc1N
105 to 107 °C	CN(C)C(=O)c1cc(S(=O)(=O)Cl)cn1C
211 to 213 °C	Nc1ccc(S(=O)(=O)Nc2nncs2)cc1
171 to 179 °C	Nc1ccc(Br)c(C(=O)O)c1
159 to 161 °C	CCc1ccc(C(=O)O)cc1S(=O)(=O)N1CCOCC1
130 to 132 °C	CN(C)S(=O)(=O)c1ccc2c(c1)NCCC2
123 to 125 °C	O=[N+]([O-])c1cc(S(=O)(=O)Nc2ccc(Br)cc2)ccc1Cl
251 to 253 °C	Nc1oc2ccc(F)cc2c(=O)c1C=O
181 to 183 °C	O=C(O)c1c(Cl)nc2sccn12
93 to 97 °C	CCc1ccc(OCC(=O)O)cc1
133 to 135 °C	Cc1cc(C=O)c(C)n1-c1ccc(F)cc1F
102 to 104 °C	Nc1nc(-c2ccccc2F)cs1
199 to 201 °C	c1n[nH]c2cc3c(cc12)OCO3
161 to 163 °C	O=C(O)C1CCCN1C(=O)c1ccc([N+](=O)[O-])s1 (stereo not given)
226 to 228 °C	NC(=O)CCc1ccc(C(=O)O)cc1
